Experimental data taken from patent US11415579B2, “Assay for measuring a rate of reaction between a target and a ligand candidate” (Imperial College Innovations Ltd., priority 2016, dated 2022).
Where “and” joins values, the source holds several entries; their conditions need not be identical. Equal entries are not always repeated.

Key:
[1] = Kinetic thiol consumption assay with model thiol glutathione; assay type: physicochemical; design: Rate constant with glutathione (k(GSH)): unit not given here; details: for Rate constant with glutathione (k(GSH)): 500 μM ligand, 5 μM thiol, phosphate buffer pH 8; for Rate constant with Glutathione: Protein: Glutathione, cysteine position NA, in h-1
How it was run: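 First, 5 μM glutathione in degassed phosphate buffer (pH 8) receives immobilized TCEP beads (2% v/v). Then acrylamide is added and plates incubate 1 h at room temperature. Finally, fluorescence (380/470 nm) is normalized and fitted to first-order decay for rate constants.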

[2] = target: T1, human cyclin-dependent kinase 2 (Cdk2) (Homo sapiens, UniProt P24941); assay: Kinetic thiol consumption assay with wild type Cdk2 (C177); assay type: binding; design: key to Rate enhancement, Cdk2 WT: k(Cdk2) divided by k(model thiol); Rate constant with Cdk2 (k(Cdk2)): unit not given here; details: for Rate constant with Cdk2 (k(Cdk2)): 500 μM ligand, 5 μM thiol, phosphate buffer pH 8; for Rate enhancement, Cdk2 WT: no additional mutations; for Rate constant with Cdk2 WT: Protein: Cdk2, cysteine position WT, in h^-1; for k(Cdk2)/k(Cdk2_mut) rate enhancement: model thiol Cdk2[C177A, F80C, K278C]; for k(Cdk2)/k(GSH) rate enhancement: model thiol glutathione
T1 construct: poly-histidine; made in house; host or cells: E. coli
How it was run: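 His-tagged human Cdk2 (single surface cysteine C177), expressed in E. coli, or a model thiol at 5 μM in degassed phosphate buffer pH 8 was pre-treated with immobilized TCEP beads (2% v/v) before acrylamide addition. Fluorescence (ex/em 380/470 nm) was read after 1 h at room temperature, normalized to DMSO/thiol-only control and plotted versus time.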

Cdk2[C177A, F80C, K278C] = target: T2, Cdk2[C177A, F80C, K278C] (Homo sapiens, UniProt P24941, C177A/F80C/K278C); assay: Kinetic thiol consumption assay with mutant Cdk2 as model thiol; assay type: binding; design: unit not given here; details: 500 μM ligand, 5 μM thiol, phosphate buffer pH 8
T2 construct: poly-histidine; made in house; host or cells: E. coli
How it was run: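 Model thiol: His-tagged human Cdk2 C177A/F80C/K278C (two engineered surface cysteines), E. coli-expressed, 5 μM in degassed phosphate buffer pH 8 with immobilized TCEP beads (2% v/v). Fluorescence (ex/em 380/470 nm) followed over time at room temperature, normalized to DMSO/thiol control. First-order decay fit gives rate constants.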

Cdk2(C177A, F80C) = target: T3, Cdk2(C177A, F80C) (Homo sapiens, UniProt P24941, C177A/F80C); assay: Kinetic thiol consumption assay with Cdk2 mutant F80C, incl. kobs versus concentration (Kd, k2); assay type: binding; design: key to Rate enhancement, Cdk2 F80C: Cdk2 rate constant divided by model-thiol rate constant; details: additional mutation C177A
T3 construct: poly-histidine; made in house; host or cells: E. coli
How it was run: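 His-tagged Cdk2(C177A/F80C) from E. coli or model thiol, 5 μM in degassed phosphate buffer pH 8 with TCEP beads, reacted with acrylamide ligands; fluorescence (ex/em 380/470 nm) normalized to DMSO control and fitted to first-order decay for kobs. Kd and k2 obtained from hyperbolic fit of kobs versus ligand concentration.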

Cdk2(H71C) (C177A) = target: T4, Cdk2(H71C) (C177A) (Homo sapiens, UniProt P24941, C177A/H71C); assay: Kinetic thiol consumption assay with Cdk2 mutant H71C; assay type: binding; design: key to Rate enhancement, Cdk2 H71C: rate constant with Cdk2 ÷ rate constant with model thiol (fold); details: additional mutation C177A; for Rate constant with Cdk2 H71C: Protein: Cdk2, cysteine position H71C, in h^-1
T4 construct: poly-histidine; made in house; host or cells: E. coli
How it was run: (§1)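 5 μM thiol, degassed phosphate pH 8, 2% v/v immobilized TCEP beads; 1 h RT; fluorescence ex 380/em 470 nm; normalized vs DMSO/thiol-only; first-order exponential decay fit → rate constant; Cdk2 k / model-thiol k = rate enhancement per acrylamide.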

Cdk2(S276C) (C177A) = target: T5, Cdk2(S276C) (C177A) (Homo sapiens, UniProt P24941, C177A/S276C); assay: Kinetic thiol consumption assay with Cdk2 mutant S276C; assay type: binding; design: key to Rate enhancement, Cdk2 S276C: rate constant with Cdk2 ÷ rate constant with model thiol (fold); details: additional mutation C177A; for Rate constant with Cdk2 S276C: Protein: Cdk2, cysteine position S276C, in h^-1
T5 construct: poly-histidine; made in house; host or cells: E. coli
How it was run: as §1

Cdk2(N272C) (C177A) = target: T6, Cdk2(N272C) (C177A) (Homo sapiens, UniProt P24941, C177A/N272C); assay: Kinetic thiol consumption assay with Cdk2 mutant N272C; assay type: binding; design: key to Rate enhancement, Cdk2 N272: rate constant with Cdk2 ÷ rate constant with model thiol (fold); details: for Rate enhancement, Cdk2 N272: Cdk2 N272, additional mutation C177A; for Rate constant with Cdk2 N272C: Protein: Cdk2, cysteine position N272C, additional mutation C177A, in h^-1
T6 construct: poly-histidine; made in house; host or cells: E. coli
How it was run: as §1

Cdk2(T182C) (C177A) = target: T7, Cdk2(T182C) (C177A) (Homo sapiens, UniProt P24941, C177A/T182C); assay: Kinetic thiol consumption assay with Cdk2 mutant T182C; assay type: binding; design: key to Rate enhancement, Cdk2 T182C: rate constant with Cdk2 ÷ rate constant with model thiol (fold); details: additional mutation C177A; for Rate constant with Cdk2 T182C: Protein: Cdk2, cysteine position T182C, in h^-1
T7 construct: poly-histidine; made in house; host or cells: E. coli
How it was run: as §1

Cdk2(R122C) (C177A) = target: T8, Cdk2(R122C) (C177A) (Homo sapiens, UniProt P24941, C177A/R122C); assay: Kinetic thiol consumption assay with Cdk2 mutant R122C; assay type: binding; design: key to Rate enhancement, Cdk2 R122C: rate constant with Cdk2 ÷ rate constant with model thiol (fold); details: additional mutation C177A; for Rate constant with Cdk2 R122C: Protein: Cdk2, cysteine position R122C, in h-1
T8 construct: poly-histidine; made in house; host or cells: E. coli
How it was run: as §1

Cdk2(S181C) (C177A) = target: T9, Cdk2(S181C) (C177A) (Homo sapiens, UniProt P24941, C177A/S181C); assay: Kinetic thiol consumption assay with Cdk2 mutant S181C; assay type: binding; design: key to Rate enhancement, Cdk2 S181C: rate constant with Cdk2 ÷ rate constant with model thiol (fold); details: additional mutation C177A; for Rate constant with Cdk2 S181C: Protein: Cdk2, cysteine position S181C, in h^-1
T9 construct: poly-histidine; made in house; host or cells: E. coli
How it was run: as §1

Compound: C=CC(=O)NC1c2ccccc2Oc2ccccc21 [CA-171]
- Rate constant with glutathione (k(GSH)) [1]: 0.00416
- Rate constant with Glutathione [1]: 0.00729
- Rate constant with Cdk2 (k(Cdk2)) [2]: 0.00423
- Rate enhancement, Cdk2 WT [2]: 1.547
- Rate constant with Cdk2 WT [2]: 0.01128
- k(Cdk2)/k(Cdk2_mut) rate enhancement [2]: 3.343
- k(Cdk2)/k(GSH) rate enhancement [2]: 1.018
- Rate constant with Cdk2[C177A, F80C, K278C] (k(Cdk2_mut)) (Cdk2[C177A, F80C, K278C]): 0.00127
- Rate enhancement, Cdk2 F80C (Cdk2(C177A, F80C)): 0
- Rate enhancement, Cdk2 H71C (Cdk2(H71C) (C177A)): 0.4785
- Rate constant with Cdk2 H71C (Cdk2(H71C) (C177A)): 0.003488
- Rate enhancement, Cdk2 S276C (Cdk2(S276C) (C177A)): 0.5204
- Rate constant with Cdk2 S276C (Cdk2(S276C) (C177A)): 0.003794
- Rate enhancement, Cdk2 N272 (Cdk2(N272C) (C177A)): 1.029
- Rate constant with Cdk2 N272C (Cdk2(N272C) (C177A)): 0.007502
- Rate enhancement, Cdk2 T182C (Cdk2(T182C) (C177A)): 13.51
- Rate constant with Cdk2 T182C (Cdk2(T182C) (C177A)): 0.09852
- Rate enhancement, Cdk2 R122C (Cdk2(R122C) (C177A)): 0.2126
- Rate constant with Cdk2 R122C (Cdk2(R122C) (C177A)): 0.00155
- Rate enhancement, Cdk2 S181C (Cdk2(S181C) (C177A)): 0.8523
- Rate constant with Cdk2 S181C (Cdk2(S181C) (C177A)): 0.006213

Compound: C=CC(=O)N1CCC2(CC1)CC2C(=O)OC (stereo not shown) [CA-039]
- Rate constant with glutathione (k(GSH)) [1]: 0.00141
- Rate constant with Glutathione [1]: 0.002035
- Rate constant with Cdk2 (k(Cdk2)) [2]: 0.00187
- Rate enhancement, Cdk2 WT [2]: 0.2802
- Rate constant with Cdk2 WT [2]: 0.0005702
- k(Cdk2)/k(Cdk2_mut) rate enhancement [2]: 0.6155
- k(Cdk2)/k(GSH) rate enhancement [2]: 1.327
- Rate constant with Cdk2[C177A, F80C, K278C] (k(Cdk2_mut)) (Cdk2[C177A, F80C, K278C]): 0.00304
- Rate enhancement, Cdk2 F80C (Cdk2(C177A, F80C)): 0
- Rate enhancement, Cdk2 H71C (Cdk2(H71C) (C177A)): 0
- Rate enhancement, Cdk2 S276C (Cdk2(S276C) (C177A)): 1.14
- Rate constant with Cdk2 S276C (Cdk2(S276C) (C177A)): 0.002319
- Rate enhancement, Cdk2 N272 (Cdk2(N272C) (C177A)): 0.7499
- Rate constant with Cdk2 N272C (Cdk2(N272C) (C177A)): 0.001526
- Rate enhancement, Cdk2 T182C (Cdk2(T182C) (C177A)): 1.425
- Rate constant with Cdk2 T182C (Cdk2(T182C) (C177A)): 0.0029
- Rate enhancement, Cdk2 R122C (Cdk2(R122C) (C177A)): 0.8889
- Rate constant with Cdk2 R122C (Cdk2(R122C) (C177A)): 0.001809
- Rate enhancement, Cdk2 S181C (Cdk2(S181C) (C177A)): 0.6334
- Rate constant with Cdk2 S181C (Cdk2(S181C) (C177A)): 0.001289

Compound: C=CC(=O)Nc1cccc(C(F)(F)F)c1 [EL-1007]
- Rate constant with glutathione (k(GSH)) [1]: 0.025 and 0.02461
- Rate constant with Glutathione [1]: 0.02462
- Rate constant with Cdk2 (k(Cdk2)) [2]: 0.035 and 0.03473
- Rate enhancement, Cdk2 WT [2]: 1.411
- Rate constant with Cdk2 WT [2]: 0.03473
- hit classification, Example 1 ([2]; hits defined as kCdk2/kGSH>5.8 (3 standard deviations over the mean)): negative compound
- k(Cdk2)/k(Cdk2_mut) rate enhancement [2]: 0.5928
- k(Cdk2)/k(GSH) rate enhancement [2]: 1.4 and 1.411
- Rate constant with Cdk2[C177A, F80C, K278C] (k(Cdk2_mut)) (Cdk2[C177A, F80C, K278C]): 0.05859
- Rate enhancement, Cdk2 F80C (Cdk2(C177A, F80C)): 1.215
- Rate constant with Cdk2 F80C (Cdk2(C177A, F80C); Protein: Cdk2, cysteine position F80C, in h^-1): 0.02991
- Rate enhancement, Cdk2 H71C (Cdk2(H71C) (C177A)): 0.2924
- Rate constant with Cdk2 H71C (Cdk2(H71C) (C177A)): 0.007199
- Rate enhancement, Cdk2 S276C (Cdk2(S276C) (C177A)): 1.314
- Rate constant with Cdk2 S276C (Cdk2(S276C) (C177A)): 0.03236
- Rate enhancement, Cdk2 N272 (Cdk2(N272C) (C177A)): 0.3406
- Rate constant with Cdk2 N272C (Cdk2(N272C) (C177A)): 0.008386
- Rate enhancement, Cdk2 T182C (Cdk2(T182C) (C177A)): 2.5
- Rate constant with Cdk2 T182C (Cdk2(T182C) (C177A)): 0.06154
- Rate enhancement, Cdk2 R122C (Cdk2(R122C) (C177A)): 0.6852
- Rate constant with Cdk2 R122C (Cdk2(R122C) (C177A)): 0.01687
- Rate enhancement, Cdk2 S181C (Cdk2(S181C) (C177A)): 0.487
- Rate constant with Cdk2 S181C (Cdk2(S181C) (C177A)): 0.01199
